Results: PubChem BioAssay AID2060901 (Molecular Pharmacology Branch, DTP, NCI, 2025)

System: 422866-222-R5-J1-PDC complex spheroids viability
Assay: Anticancer human tumor 422866-222-R5-J1-PDC patient-derived pancreatic adenocarcinoma cell line growth inhibition [RAS]
Conditions: for IC50: curve of first compound; for viability, T/C: stronger effect = lower value; active = viability on the fitted dose curve at most 10% of control; inactive = the rest
Method in brief: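 Multi-cell-type spheroids: tumor cells plus HUVEC endothelial cells and mesenchymal stem cells. RAS-pathway inhibitors were combined with targeted agents, each dosed in half-log steps down from clinical Cmax, or from 10 microM when Cmax was unknown.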
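Note: spheroids exposed to compounds for 7 days.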
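Throughout, for viability, T/C: 100% = DMSO vehicle control viability.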

NC1c2ccccc2OC12CCN(c1cnc3c(N4CCCc5ncccc54)n[nH]c3n1)CC2 (centres undefined) + C#Cc1c(F)ccc2cc(O)cc(-c3ncc4c(N5CC6CCC(C5)N6)nc(OCC56CCCN5CC(F)C6)nc4c3F)c12
55.8 nM: IC50 (second compound 0.0316 µM)
< 31.6 nM: IC50 (second compound 0.1 µM) | IC50 (second compound 0.316 µM) | IC50 (second compound 1 µM) | IC50 (second compound 3.16 µM) | IC50 (second compound 10 µM)
inactive: viability, T/C (second compound 0.0316 µM, first compound 0.0316 µM) 53% | viability, T/C (second compound 0.0316 µM, first compound 0.1 µM) 49.2% | viability, T/C (second compound 0.0316 µM, first compound 0.316 µM) 34.8% | viability, T/C (second compound 0.0316 µM, first compound 1 µM) 38.4% | viability, T/C (second compound 0.0316 µM, first compound 3.16 µM) 29.5% | viability, T/C (second compound 0.0316 µM, first compound 10 µM) 23.6% | viability, T/C (second compound 0.1 µM, first compound 0.0316 µM) 44% | viability, T/C (second compound 0.1 µM, first compound 0.1 µM) 43.3% | viability, T/C (second compound 0.1 µM, first compound 0.316 µM) 32.8% | viability, T/C (second compound 0.1 µM, first compound 1 µM) 28.7% | viability, T/C (second compound 0.1 µM, first compound 3.16 µM) 27.7% | viability, T/C (second compound 0.1 µM, first compound 10 µM) 25.5% | viability, T/C (second compound 0.316 µM, first compound 0.0316 µM) 38.1% | viability, T/C (second compound 0.316 µM, first compound 0.1 µM) 36.2% | viability, T/C (second compound 0.316 µM, first compound 0.316 µM) 24.1% | viability, T/C (second compound 0.316 µM, first compound 1 µM) 26.4% | viability, T/C (second compound 0.316 µM, first compound 3.16 µM) 24.2% | viability, T/C (second compound 0.316 µM, first compound 10 µM) 19.7% | viability, T/C (second compound 1 µM, first compound 0.0316 µM) 27.1% | viability, T/C (second compound 1 µM, first compound 0.1 µM) 23.9% | viability, T/C (second compound 1 µM, first compound 0.316 µM) 25.2% | viability, T/C (second compound 1 µM, first compound 1 µM) 17% | viability, T/C (second compound 1 µM, first compound 3.16 µM) 19.6% | viability, T/C (second compound 1 µM, first compound 10 µM) 15% | viability, T/C (second compound 3.16 µM, first compound 0.0316 µM) 17.8% | viability, T/C (second compound 3.16 µM, first compound 0.1 µM) 19.8% | viability, T/C (second compound 3.16 µM, first compound 0.316 µM) 16.1% | viability, T/C (second compound 3.16 µM, first compound 1 µM) 17.4% | viability, T/C (second compound 3.16 µM, first compound 3.16 µM) 17.5% | viability, T/C (second compound 3.16 µM, first compound 10 µM) 14.9% | viability, T/C (second compound 10 µM, first compound 0.0316 µM) 15.7% | viability, T/C (second compound 10 µM, first compound 0.1 µM) 16.5% | viability, T/C (second compound 10 µM, first compound 0.316 µM) 14.3% | viability, T/C (second compound 10 µM, first compound 1 µM) 16.2% | viability, T/C (second compound 10 µM, first compound 3.16 µM) 15.6% | viability, T/C (second compound 10 µM, first compound 10 µM) 16.1%

CCN1CCN(Cc2ccc(Nc3ncc(F)c(-c4cc(F)c5nc(C)n(C(C)C)c5c4)n3)nc2)CC1 + CCn1c(-c2cccnc2C(C)OC)c2c3cc(ccc31)N1CCOC(CC(NC(=O)C(C(C)C)N(C)C(=O)C3(F)CCN(C(=O)C#CC(C)(C)N(C)C)CC3)C(=O)N3CCCC(N3)C(=O)OCC(C)(C)C2)C1
inactive: viability, T/C (second compound 0.000949 µM, first compound 0.00316 µM) 30.8% | viability, T/C (second compound 0.000949 µM, first compound 0.01 µM) 26.9% | viability, T/C (second compound 0.000949 µM, first compound 0.0316 µM) 27.2% | viability, T/C (second compound 0.000949 µM, first compound 0.1 µM) 25.8% | viability, T/C (second compound 0.000949 µM, first compound 0.316 µM) 30% | viability, T/C (second compound 0.000949 µM, first compound 1 µM) 39% | viability, T/C (second compound 0.003 µM, first compound 0.00316 µM) 23.8% | viability, T/C (second compound 0.003 µM, first compound 0.01 µM) 24.9% | viability, T/C (second compound 0.003 µM, first compound 0.0316 µM) 23.7% | viability, T/C (second compound 0.003 µM, first compound 0.1 µM) 20.3% | viability, T/C (second compound 0.003 µM, first compound 0.316 µM) 26.3% | viability, T/C (second compound 0.003 µM, first compound 1 µM) 37.5% | viability, T/C (second compound 0.00949 µM, first compound 0.00316 µM) 25% | viability, T/C (second compound 0.00949 µM, first compound 0.01 µM) 21.9% | viability, T/C (second compound 0.00949 µM, first compound 0.0316 µM) 20% | viability, T/C (second compound 0.00949 µM, first compound 0.1 µM) 21.5% | viability, T/C (second compound 0.00949 µM, first compound 0.316 µM) 25.3% | viability, T/C (second compound 0.00949 µM, first compound 1 µM) 37.5% | viability, T/C (second compound 0.03 µM, first compound 0.00316 µM) 20.6% | viability, T/C (second compound 0.03 µM, first compound 0.01 µM) 19.9% | viability, T/C (second compound 0.03 µM, first compound 0.0316 µM) 16.8% | viability, T/C (second compound 0.03 µM, first compound 0.1 µM) 19.1% | viability, T/C (second compound 0.03 µM, first compound 0.316 µM) 26.7% | viability, T/C (second compound 0.03 µM, first compound 1 µM) 40.3% | viability, T/C (second compound 0.0949 µM, first compound 0.00316 µM) 18.5% | viability, T/C (second compound 0.0949 µM, first compound 0.01 µM) 21.1% | viability, T/C (second compound 0.0949 µM, first compound 0.0316 µM) 19.7% | viability, T/C (second compound 0.0949 µM, first compound 0.1 µM) 18.6% | viability, T/C (second compound 0.0949 µM, first compound 0.316 µM) 27.5% | viability, T/C (second compound 0.0949 µM, first compound 1 µM) 37.2% | viability, T/C (second compound 0.3 µM, first compound 0.00316 µM) 19.9% | viability, T/C (second compound 0.3 µM, first compound 0.01 µM) 18.8% | viability, T/C (second compound 0.3 µM, first compound 0.0316 µM) 18.8% | viability, T/C (second compound 0.3 µM, first compound 0.1 µM) 17.1% | viability, T/C (second compound 0.3 µM, first compound 0.316 µM) 24% | viability, T/C (second compound 0.3 µM, first compound 1 µM) 34.9%
< 3.16 nM: IC50 (second compound 0.000949 µM) | IC50 (second compound 0.003 µM) | IC50 (second compound 0.00949 µM) | IC50 (second compound 0.03 µM) | IC50 (second compound 0.0949 µM) | IC50 (second compound 0.3 µM)
